{
  "source": "patent US12564194B2",
  "about": "“Herbicide mixture, herbicidal composition, method and kit for controlling undesired vegetation” (Adama Agan Ltd., priority 2020, dated 2026)",
  "type_in_all_cases": "in vivo",
  "key": {"Lolium multiflorum Lamk": {"tested_on": "Lolium multiflorum Lamk", "experiment": "Soil sealing treatment pot experiment for controlling Lolium multiflorum Lamk (Example 2)"}, "Aegilops tauschii [1]": {"tested_on": "Aegilops tauschii", "experiment": "Soil sealing treatment pot experiment for controlling Aegilops tauschii (Example 1)", "text": "(§1) Referring to an article of Colby, S. R. i.e., Calculation of the synergistic and antagonistic response of herbicide combinations. Weeds 1967, 15, pp. 20-22 (which is incorporated herein in its entirety by reference), the theoretical value E0 of a given mixture of three active ingredients may be predicted according to the following equation, then evaluating whether there is synergy.\n(§2) [formula] • wherein: • E0 is the theoretical fresh weight survival rate for the mixture of pyroxasulfone, chlorotoluron and […]; • X is the measured fresh weight survival rate for pyroxasulfone used alone in the same dosage as that in the mixture; • Y is the measured fresh weight survival rate for chlorotoluron used alone in the same dosage as that in the mixture; • Z is the measured fresh weight survival rate for mesosulfuron-methyl used alone in the same dosage as that in the mixture. • E is the measured fresh weight survival rate for the mixture of pyroxasulfone, chlorotoluron and mesosulfuron-methyl. • E0-E value is calculated to evaluate the combined effect of pyroxasulfone, chlorotoluron and mesosulfuron-methyl on the selected weeds.\n(§3) In this example, the herbicidal activity of a mixture of pyroxasulfone, chlorotoluron and mesosulfuron-methyl for soil sealing treatment to control Aegilops tauschii is investigated by a pot experiment method under the conditions of a glass greenhouse. This example is carried out in accordance with “NY/T 1155.4-2006 Guidelines for Indoor Bioassay Tests of Pesticides, Herbicides Part 4: Activity Determination Tests, Stem and Leaf Spray Method”.\n(§4) • Pyroxasulfone: pyroxasulfone (850 g/Kg, WG) from Adama Agan LTD. • Chlorotoluron: chlorotoluron (90 wt %, WG) from Adama Agan LTD. • Mesosulfuron-methyl: Sigma (30 g/L, OD) from Bayer AG. • Test location: Greenhouse of Institute of Plant Protection, Shandong Academy of Agricultural Sciences • Cultivation of test materials: The test soil is formed by mixing the 20 cm layer loam on the ground surface and the culture medium in a ratio of 3:1 as cultivation soil.\n(§5) The test weeds are cultivated in a glass greenhouse at a temperature of 15-30° C. and natural light. A certain amount of Aegilops tauschil seeds are sown in a plastic pot with a diameter of 9 cm, covering with 1-2 mm soil, and putting them in an enamel dish filled with water. The bottom infiltration method is used to water them, waiting for the water to seep to the soil surface, and then transferring to a glass greenhouse for cultivation. The agents are applied on the second day after sowing Aegilops tauschii seeds.\n(§6) For each active ingredient, the multiple dilution method is used to obtain the other five lower dosages from the highest dosage. A certain amount of agent is measured by pipette or balance, adding it directly to the water, and then diluting it to the required dosage by the multiple dilution method.\n(§7) Spraying treatment: ASS-4 automatic control spraying system with a fan-shaped nozzle is used indoors to spray agent, the running speed is adjusted based on nozzle pressure, flow rate, etc. to spray 50 mL of chemical solution on the actual spray area of 1.1 m^2 (equivalent to 30 liters per mu), arranging the plastic pots to be processed on the spraying table evenly, and spraying evenly. The spraying pressure is 0.35 MPa, and the flow rate of the fan-shaped nozzle is 800 mL/min, spraying in order from low dosage to high dosage. Each treatment is repeated 3 times. After spraying, let it dry for one day, placing it in a glass greenhouse, and watering it regularly to keep moist.\nApplication time and frequency: the experiment is conducted on the second day after sowing Aegilops tauschii seeds, and the soil is evenly sprayed. The application time is Mar. 10, 2020, with one application.\nWeed investigation method and time: after applying the agent, the symptoms of weed damage (such as growth inhibition, chlorosis, deformity, etc.) are recorded in detail. […]"}, "Aegilops tauschii [2]": {"tested_on": "Aegilops tauschii", "experiment": "Soil sealing treatment pot experiment for controlling Aegilops tauschii, more mixing ratios (Example 3)", "text": "as §1, §2, §3, §4, §5, §6, §7\nWeed investigation method and time: after applying the agent, the symptoms of weed damage (such as growth inhibition, chlorosis, deformity, etc.) are recorded in detail. After 35 days, the fresh weight of aerial part of the weeds in each treatment is weighed, and the measured fresh weight inhibition rate and the measured fresh weight survival rate for each treatment are calculated according to the following equations: […]"}, "[3]": {"details": "single active ingredient, summary of Table 2"}},
  "data": [
    {"molecule": "Cn1nc(C(F)(F)F)c(CS(=O)(=O)C2=NOC(C)(C)C2)c1OC(F)F", "note": "[pyroxasulfone, 3-[(5-difluoromethoxy-1-methyl-3-trifluoromethylpyrazol-4-yl)methylsulfonyl]-4,5-dihydro-5,5-dimethyl-1,2-isoxazole]", "values": [
      {"measurement": "Measured fresh weight survival rate (%) - E", "setting": "Lolium multiflorum Lamk; 5.625 gai/ha, 35 days", "value": 69.23, "unit": "%"},
      {"measurement": "Measured fresh weight survival rate (%) - E", "setting": "Lolium multiflorum Lamk; 11.25 gai/ha, 35 days", "value": 53.85, "unit": "%"},
      {"measurement": "Measured fresh weight survival rate (%) - E", "setting": "Lolium multiflorum Lamk; 22.5 gai/ha, 35 days", "value": 51.65, "unit": "%"},
      {"measurement": "Measured fresh weight survival rate (%) - E", "setting": "Lolium multiflorum Lamk; 45 gai/ha, 35 days", "value": 20.88, "unit": "%"},
      {"measurement": "Measured fresh weight survival rate (%) - E", "setting": "Lolium multiflorum Lamk; 90 gai/ha, 35 days", "value": 0, "unit": "%"},
      {"measurement": "Measured fresh weight survival rate (%) - E", "setting": "Lolium multiflorum Lamk; 180 gai/ha, 35 days", "value": 0, "unit": "%"},
      {"measurement": "inhibition at 5.625 g/ha", "setting": "Lolium multiflorum Lamk; Lolium multiflorum, soil, 840 h, 5.625 gai/ha, 35 days, read-out: Measured fresh weight inhibition rate (%)", "value": 30.8, "unit": "%"},
      {"measurement": "inhibition at 11.25 g/ha", "setting": "Lolium multiflorum Lamk; Lolium multiflorum, soil, 840 h, 11.25 gai/ha, 35 days, read-out: Measured fresh weight inhibition rate (%)", "value": 46.1, "unit": "%"},
      {"measurement": "inhibition at 22.5 g/ha", "setting": "Lolium multiflorum Lamk; Lolium multiflorum, soil, 840 h, 22.5 gai/ha, 35 days, read-out: Measured fresh weight inhibition rate (%)", "value": 48.4, "unit": "%"},
      {"measurement": "inhibition at 45 g/ha", "setting": "Lolium multiflorum Lamk; Lolium multiflorum, soil, 840 h, 45 gai/ha, 35 days, read-out: Measured fresh weight inhibition rate (%)", "value": 79.1, "unit": "%"},
      {"measurement": "inhibition at 90 g/ha", "setting": "Lolium multiflorum Lamk; Lolium multiflorum, soil, 840 h, 90 gai/ha, 35 days, read-out: Measured fresh weight inhibition rate (%)", "value": 100, "unit": "%"},
      {"measurement": "inhibition at 180 g/ha", "setting": "Lolium multiflorum Lamk; Lolium multiflorum, soil, 840 h, 180 gai/ha, 35 days, read-out: Measured fresh weight inhibition rate (%)", "value": 100, "unit": "%"},
      {"measurement": "effect on Lolium multiflorum Lamk", "setting": "Lolium multiflorum Lamk; [3]", "value": "best effect"},
      {"measurement": "Measured fresh weight survival rate (%) - E", "setting": "Aegilops tauschii [1]; 5.625 gai/ha, 35 days", "value": 101.3, "unit": "%"},
      {"measurement": "Measured fresh weight survival rate (%) - E", "setting": "Aegilops tauschii [1]; 11.25 gai/ha, 35 days", "value": 97.4, "unit": "%"},
      {"measurement": "Measured fresh weight survival rate (%) - E", "setting": "Aegilops tauschii [1]; 22.5 gai/ha, 35 days", "value": 98.7, "unit": "%"},
      {"measurement": "Measured fresh weight survival rate (%) - E", "setting": "Aegilops tauschii [1]; 45 gai/ha, 35 days", "value": 79.22, "unit": "%"},
      {"measurement": "Measured fresh weight survival rate (%) - E", "setting": "Aegilops tauschii [1]; 90 gai/ha, 35 days", "value": 75.32, "unit": "%"},
      {"measurement": "Measured fresh weight survival rate (%) - E", "setting": "Aegilops tauschii [1]; 180 gai/ha, 35 days", "value": 54.55, "unit": "%"},
      {"measurement": "inhibition at 5.625 g/ha", "setting": "Aegilops tauschii [1]; Aegilops tauschii, soil, 840 h, 5.625 gai/ha, 35 days, read-out: Measured fresh weight inhibition rate (%)", "value": -1.3, "unit": "%"},
      {"measurement": "inhibition at 11.25 g/ha", "setting": "Aegilops tauschii [1]; Aegilops tauschii, soil, 840 h, 11.25 gai/ha, 35 days, read-out: Measured fresh weight inhibition rate (%)", "value": 2.6, "unit": "%"},
      {"measurement": "inhibition at 22.5 g/ha", "setting": "Aegilops tauschii [1]; Aegilops tauschii, soil, 840 h, 22.5 gai/ha, 35 days, read-out: Measured fresh weight inhibition rate (%)", "value": 1.3, "unit": "%"},
      {"measurement": "inhibition at 45 g/ha", "setting": "Aegilops tauschii [1]; Aegilops tauschii, soil, 840 h, 45 gai/ha, 35 days, read-out: Measured fresh weight inhibition rate (%)", "value": 20.8, "unit": "%"},
      {"measurement": "inhibition at 90 g/ha", "setting": "Aegilops tauschii [1]; Aegilops tauschii, soil, 840 h, 90 gai/ha, 35 days, read-out: Measured fresh weight inhibition rate (%)", "value": 24.7, "unit": "%"},
      {"measurement": "inhibition at 180 g/ha", "setting": "Aegilops tauschii [1]; Aegilops tauschii, soil, 840 h, 180 gai/ha, 35 days, read-out: Measured fresh weight inhibition rate (%)", "value": 45.5, "unit": "%"},
      {"measurement": "control effect on Aegilops tauschii", "setting": "Aegilops tauschii [1]; [3]", "value": "certain effect"},
      {"measurement": "Actual fresh weight survival rate (%) - E", "setting": "Aegilops tauschii [2]; 45 gai/ha", "value": 75.0, "unit": "%"},
      {"measurement": "Actual fresh weight survival rate (%) - E", "setting": "Aegilops tauschii [2]; 90 gai/ha", "value": 51.7, "unit": "%"},
      {"measurement": "Actual fresh weight survival rate (%) - E", "setting": "Aegilops tauschii [2]; 180 gai/ha", "value": 34.5, "unit": "%"},
      {"measurement": "inhibition at 45 g/ha", "setting": "Aegilops tauschii [2]; Aegilops tauschii, soil, 45 gai/ha, read-out: Actual fresh weight inhibition rate %", "value": 25, "unit": "%"},
      {"measurement": "inhibition at 90 g/ha", "setting": "Aegilops tauschii [2]; Aegilops tauschii, soil, 90 gai/ha, read-out: Actual fresh weight inhibition rate %", "value": 48.3, "unit": "%"},
      {"measurement": "inhibition at 180 g/ha", "setting": "Aegilops tauschii [2]; Aegilops tauschii, soil, 180 gai/ha, read-out: Actual fresh weight inhibition rate %", "value": 65.5, "unit": "%"}
    ]}
  ]
}
